We go through two compounds from patent publication US9737505B2, “Prodrug of 1,1′-(1,6-dioxo-1,6-hexanediyl)bis-D-proline” (GlaxoSmithKline Intellectual Property Development Limited, priority 2014, dated 2017).

Where two headings read alike, the source gives them in different places.

In data set [1] the target is T1, SAP (Homo sapiens, UniProt P02743).
T1 construct: Depletion of plasma SAP by CPHPC, from the normal 20-50 mg/L to <0.1 mg/L; host or cells: circulating SAP in plasma and CSF of patients
Conditions: patients with Alzheimer's disease, cited from earlier work.

The conditions of data set [2]: very low and variable; cited from earlier work.
Data set [3] deals with T1, SAP. Conditions: systemic amyloidosis patients, for as long as the drug was administered; cited from earlier work.
A further data set concerns the target T2, CYP2C19 (Homo sapiens, UniProt P33261).
T2 construct: purchased Cypex; host or cells: bactosomes (bacterial membranes)
As to the kind of experiment: Cytochrome p450 inhibition assay (bactosomes, fluorogenic substrate BMC). Type of data set: biochemical. The conditions noted are these: recombinant human CYP (Cypex bactosomes). On the procedure:
(§1) The assay was designed to evaluate inhibition on cytochrome P450 (CYP) 3A4, 2C9, 2C19, 1A2 and 2D6 enzymes from bactosomes source using fluorogenic substrates. Compound (compound of Formula (I) or Comparator Compound) was dissolved in methanol at 1.65 mM. Daughter solutions were prepared in methanol at 660, 264, 106, 42, 17, 6.8, 2.7, 1.1 and 0.43 μM. NADPH cofactor was prepared with Glucose-6-phosphate (7.8 mg), Glucose-6-phosphate dehydrogenase (6 units), NADP (1.7 mg) per 1 mL in NaHCO3 2%. Substrate preparation was as follows: • 7-Methoxy-4-triFluoromethyl Coumarin-3-Acetic acid ethyl ester (FCA): 12.5 mM in acetonitrile • EthoxyResorufin (ER): 0.05 mM in acetonitrile • 4-MethylaminoMethyl-7-Methoxy Coumarin (MMC): 2.5 mM in methanol • 3-Butyryl-7Methoxy Coumarin (BMC): 2.5 mM in DMSO • 7-BenzyloxyQuinoline (7BQ): 2.5 mM in acetonitrile • DiEthoxyFluorescein (DEF): 0.1 mM in acetonitrile Bactosomes (Cypex source) at the concentration of 10 mg of protein per ml were diluted in phosphate buffer 50 mM pH7.4: • 0.33 ml of bactosomes CYP2C9 with 23.8 ml of buffer and 0.11 ml of FCA • 0.33 ml of bactosomes CYP1A2 with 23.6 ml of buffer and 0.275 ml of ER • 0.33 ml of bactosomes CYP2D6 with 23.8 ml of buffer and 0.11 ml of MMC • 0.33 ml of bactosomes CYP2C19 with 23.8 ml of buffer and 0.11 ml of BMC • 0.33 ml of bactosomes CYP3[…] with 23.6 ml of buffer and 0.275 ml of 7BQ • 0.33 ml of bactosomes CYP3[…] with 23.6 ml of buffer and 0.275 ml of DEF Pre-Incubation consisted in mixing 5 μl of compound solution with 220 μl diluted bactosomes and warming it at 37° C. for 10 min. Incubation was started with the addition of 25 μl of NADPH. […]

A further data set concerns the target T3, CYP1A2 (Homo sapiens, UniProt P05177).
T3 construct: purchased Cypex; host or cells: bactosomes (bacterial membranes)
T3 sequence (P05177 1-516): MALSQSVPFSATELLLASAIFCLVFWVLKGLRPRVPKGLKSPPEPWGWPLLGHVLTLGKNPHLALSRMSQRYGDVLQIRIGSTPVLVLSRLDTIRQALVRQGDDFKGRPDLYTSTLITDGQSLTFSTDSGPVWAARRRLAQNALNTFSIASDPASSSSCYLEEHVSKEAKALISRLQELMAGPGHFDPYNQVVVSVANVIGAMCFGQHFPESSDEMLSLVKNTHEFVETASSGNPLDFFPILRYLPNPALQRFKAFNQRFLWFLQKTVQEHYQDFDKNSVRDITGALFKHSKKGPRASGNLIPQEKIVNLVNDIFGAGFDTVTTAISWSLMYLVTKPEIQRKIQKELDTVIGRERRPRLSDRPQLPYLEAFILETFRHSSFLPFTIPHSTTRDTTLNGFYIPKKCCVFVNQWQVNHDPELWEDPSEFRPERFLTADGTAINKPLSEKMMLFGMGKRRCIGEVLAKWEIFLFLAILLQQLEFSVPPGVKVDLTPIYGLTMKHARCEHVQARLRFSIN
The data set is described as follows: Cytochrome p450 inhibition assay (bactosomes, fluorogenic substrate ER). Type of data set: biochemical. The conditions noted are these: recombinant human CYP (Cypex bactosomes). The method, then: as §1

A further data set has as its target T4, CYP2C9 (Homo sapiens, UniProt P11712).
T4 construct: purchased Cypex; host or cells: bactosomes (bacterial membranes)
The data set is described as follows: Cytochrome p450 inhibition assay (bactosomes, fluorogenic substrate FCA). Format: biochemical. Conditions: recombinant human CYP (Cypex bactosomes). On the procedure:
as §1

For another data set, the target named is T5, CYP3A4 (Homo sapiens, UniProt P08684).
T5 construct: purchased Cypex; host or cells: bactosomes (bacterial membranes)
The data set is described as follows: Cytochrome p450 inhibition assay (bactosomes, fluorogenic substrates 7BQ and DEF). Format: biochemical. Conditions: recombinant human CYP (Cypex bactosomes). The method, then: The assay was designed to evaluate inhibition on cytochrome P450 (CYP) 3A4, 2C9, 2C19, 1A2 and 2D6 enzymes from bactosomes source using fluorogenic substrates. Compound (compound of Formula (I) or Comparator Compound) was dissolved in methanol at 1.65 mM. Daughter solutions were prepared in methanol at 660, 264, 106, 42, 17, 6.8, 2.7, 1.1 and 0.43 μM. NADPH cofactor was prepared with Glucose-6-phosphate (7.8 mg), Glucose-6-phosphate dehydrogenase (6 units), NADP (1.7 mg) per 1 mL in NaHCO3 2%. Substrate preparation was as follows: • 7-Methoxy-4-triFluoromethyl Coumarin-3-Acetic acid ethyl ester (FCA): 12.5 mM in acetonitrile • EthoxyResorufin (ER): 0.05 mM in acetonitrile • 4-MethylaminoMethyl-7-Methoxy Coumarin (MMC): 2.5 mM in methanol • 3-Butyryl-7Methoxy Coumarin (BMC): 2.5 mM in DMSO • 7-BenzyloxyQuinoline (7BQ): 2.5 mM in acetonitrile • DiEthoxyFluorescein (DEF): 0.1 mM in acetonitrile Bactosomes (Cypex source) at the concentration of 10 mg of protein per ml were diluted in phosphate buffer 50 mM pH7.4: • 0.33 ml of bactosomes CYP2C9 with 23.8 ml of buffer and 0.11 ml of FCA • 0.33 ml of bactosomes CYP1A2 with 23.6 ml of buffer and 0.275 ml of ER • 0.33 ml of bactosomes CYP2D6 with 23.8 ml of buffer and 0.11 ml of MMC • 0.33 ml of bactosomes CYP2C19 with 23.8 ml of buffer and 0.11 ml of BMC • 0.33 ml of bactosomes CYP3[…] with 23.6 ml of buffer and 0.275 ml of 7BQ • 0.33 ml of bactosomes CYP3[…] with 23.6 ml of buffer and 0.275 ml of DEF Pre-Incubation consisted in mixing 5 μl of compound solution with 220 μl diluted bactosomes and warming it at 37° C. for 10 min. Incubation was started with the addition of 25 μl of NADPH. Then fluorescence of substrate metabolite was read in a SAFIRE instrument (from Tecan) for 5 min: • FCA (2C9): Excitation at 410 nm and Emission at 510 nm • ER (1A2): Excitation at 530 nm and Emission at 590 nm • MMC (2D6): Excitation at 410 nm and Emission at 485 nm • BMC (2C19): Excitation at 410 nm and Emission at 465 nm • 7BQ (3A4H): Excitation at 410 nm and Emission at 530 nm • DEF (3A4L): Excitation at 485 nm and Emission at 530 nm Plotting of inhibition of substrate production against compound concentration allowed the determination of IC50 values.

A further data set has as its target T6, CYP2D6 (Homo sapiens, UniProt P10635).
T6 construct: purchased Cypex; host or cells: bactosomes (bacterial membranes)
As to the kind of experiment: Cytochrome p450 inhibition assay (bactosomes, fluorogenic substrate MMC). Format: biochemical. Conditions: recombinant human CYP (Cypex bactosomes). On the procedure:
as §1

T5 sequence (P08684 whole entry): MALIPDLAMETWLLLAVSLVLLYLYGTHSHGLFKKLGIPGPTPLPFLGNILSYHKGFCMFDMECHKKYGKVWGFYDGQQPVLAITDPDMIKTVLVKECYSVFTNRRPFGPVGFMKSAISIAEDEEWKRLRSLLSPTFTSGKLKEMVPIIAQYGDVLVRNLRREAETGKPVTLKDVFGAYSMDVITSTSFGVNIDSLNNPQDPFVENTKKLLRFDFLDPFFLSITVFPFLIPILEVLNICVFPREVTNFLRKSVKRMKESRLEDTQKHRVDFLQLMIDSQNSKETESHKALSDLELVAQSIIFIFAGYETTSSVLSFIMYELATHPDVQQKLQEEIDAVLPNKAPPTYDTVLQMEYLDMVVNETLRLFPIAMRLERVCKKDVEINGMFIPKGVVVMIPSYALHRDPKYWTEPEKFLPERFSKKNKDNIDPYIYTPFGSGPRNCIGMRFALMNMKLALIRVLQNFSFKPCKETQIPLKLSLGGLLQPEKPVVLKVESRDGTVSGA
T1 sequence (P02743 20-223): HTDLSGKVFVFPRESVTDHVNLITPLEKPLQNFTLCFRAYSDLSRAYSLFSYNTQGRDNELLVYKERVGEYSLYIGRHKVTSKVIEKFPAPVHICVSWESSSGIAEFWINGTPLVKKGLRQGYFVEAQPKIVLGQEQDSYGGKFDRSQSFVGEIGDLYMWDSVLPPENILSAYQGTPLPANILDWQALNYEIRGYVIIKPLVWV
T2 sequence (P33261 whole entry): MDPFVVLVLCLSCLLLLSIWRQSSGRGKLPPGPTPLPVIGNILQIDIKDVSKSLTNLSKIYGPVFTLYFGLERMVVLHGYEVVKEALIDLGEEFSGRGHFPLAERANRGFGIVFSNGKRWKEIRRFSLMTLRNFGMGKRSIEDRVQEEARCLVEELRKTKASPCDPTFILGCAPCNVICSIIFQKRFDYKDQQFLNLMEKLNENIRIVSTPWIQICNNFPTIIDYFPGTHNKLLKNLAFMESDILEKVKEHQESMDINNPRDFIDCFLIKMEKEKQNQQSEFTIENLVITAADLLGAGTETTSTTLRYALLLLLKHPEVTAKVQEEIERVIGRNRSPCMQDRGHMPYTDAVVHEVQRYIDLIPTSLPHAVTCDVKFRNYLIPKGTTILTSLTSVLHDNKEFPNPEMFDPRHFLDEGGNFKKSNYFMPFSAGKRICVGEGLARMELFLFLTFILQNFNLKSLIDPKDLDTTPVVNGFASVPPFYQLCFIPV
T4 sequence (P11712 whole entry): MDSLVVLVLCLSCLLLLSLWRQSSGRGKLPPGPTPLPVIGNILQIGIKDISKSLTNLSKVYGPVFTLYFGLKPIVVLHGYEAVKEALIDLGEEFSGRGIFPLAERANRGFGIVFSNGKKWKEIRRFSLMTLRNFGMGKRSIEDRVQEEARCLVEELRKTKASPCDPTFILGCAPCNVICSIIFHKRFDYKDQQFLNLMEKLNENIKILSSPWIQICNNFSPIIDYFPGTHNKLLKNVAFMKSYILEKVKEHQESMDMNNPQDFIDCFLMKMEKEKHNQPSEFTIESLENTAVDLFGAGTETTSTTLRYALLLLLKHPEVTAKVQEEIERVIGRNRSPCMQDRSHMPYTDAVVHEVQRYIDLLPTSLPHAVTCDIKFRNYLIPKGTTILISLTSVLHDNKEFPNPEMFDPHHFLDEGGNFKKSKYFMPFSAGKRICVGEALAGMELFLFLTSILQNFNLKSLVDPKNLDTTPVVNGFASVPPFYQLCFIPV
T6 sequence (P10635 whole entry): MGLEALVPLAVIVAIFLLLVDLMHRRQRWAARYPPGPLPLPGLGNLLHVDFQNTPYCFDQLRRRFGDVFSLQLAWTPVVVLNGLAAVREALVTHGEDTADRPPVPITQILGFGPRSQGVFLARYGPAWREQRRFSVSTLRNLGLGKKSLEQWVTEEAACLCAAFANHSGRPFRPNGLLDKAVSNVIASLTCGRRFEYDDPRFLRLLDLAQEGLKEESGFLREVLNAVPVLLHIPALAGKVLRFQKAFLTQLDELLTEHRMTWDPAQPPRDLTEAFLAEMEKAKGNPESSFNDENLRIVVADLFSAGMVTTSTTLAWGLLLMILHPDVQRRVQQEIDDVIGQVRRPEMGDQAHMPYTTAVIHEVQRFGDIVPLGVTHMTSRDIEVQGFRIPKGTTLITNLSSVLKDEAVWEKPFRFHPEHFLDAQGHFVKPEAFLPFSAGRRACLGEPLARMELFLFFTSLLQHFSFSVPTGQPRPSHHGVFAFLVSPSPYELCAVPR

Regarding `O=C(O)[C@H]1CCCN1C(=O)CCCCC(=O)N1CCC[C@@H]1C(=O)O` [CPHPC, (R)-1-[6-[(R)-2-carboxy-pyrrolidin-1-yl]-6-oxo-hexanoyl]pyrrolidine-2-carboxylic acid], the “CSF SAP concentration after depletion” value at SAP [1] (from 2-30 μg/L) is less than 0.1 µg/L. In addition, the “Plasma SAP after depletion” value at SAP [1] (from the normal 20-50 mg/L) is less than 0.1 mg/L. Moreover, in data set [2], the Oral bioavailability is reported as 3-5%. Moreover, the “Depletion of circulating SAP” value at SAP [3] was “almost complete depletion”.
On to `CC(OC(=O)[C@H]1CCCN1C(=O)CCCCC(=O)N1CCC[C@@H]1C(=O)OC(C)OC(=O)C(C)(C)C)OC(=O)C(C)(C)C` (stereo partly drawn) [Comparator Compound, (2R,2′R)-bis(1-(pivaloyloxy)ethyl) 1,1′-adipoylbis(pyrrolidine-2-carboxylate), reference compound], for which the half-maximal inhibitory concentration (IC50) – broadly, the point on the concentration scale where inhibition reaches its midpoint – at CYP2C19 was greater than 33 µM; on CYP1A2, greater than 33 µM; at CYP2C9 it was 26 µM; at CYP3A4 (substrate 7BQ, read-out: IC50 CYP3A4 (7BQ)) it was 5.5 µM; at CYP3A4 (substrate DEF, read-out: IC50 CYP3A4 (DEF)), 1.1 µM; on CYP2D6, greater than 33 µM. Besides, the “IC50 CYP3A4 (7BQ)” value at CYP3A4 (substrate 7BQ) is given as “significant inhibition”. Also, the “IC50 CYP3A4 (DEF)” value at CYP3A4 (substrate DEF) was “significant inhibition”.
